Reference: patent US12582146B2, “Angiotensin-converting enzyme inhibitor, blood pressure-lowering agent, and beverages and food products” (priority 2019, dated 2026)

Target: angiotensin-converting enzyme (ACE) (UniProt P12822)
Assay: Test of effect of inhibiting angiotensin-converting enzyme (Hippuryl-His-Leu substrate, hippuric acid measured by HPLC)
Assay type: biochemical
Description: [Test Example 1] Test of Effect of Inhibiting Angiotensin-Converting Enzyme Conducted on Compound (I)
The effect of inhibiting an angiotensin-converting enzyme was tested on the compound (I) (sample 1) as explained below.
A sample solution (sample 1), obtained by suitably dissolving in and diluting with distilled water, and distilled water respectively in an amount of 50 μL were dispensed into test tubes (10 mL). A substrate solution was dispensed respectively in an amount of 250 μL and mixed. The test tubes were preheated in a thermostatic water-tank at 37° C. for 5 minutes. The preheated test tubes were added with an ACE solution in an amount of 100 μL, agitated immediately and brought to react in the thermostatic water-tank at 37° C. for 45 minutes. After the reaction finished, 3% metaphosphate solution in an amount of 3.6 mL was added and agitated to end reaction. The inactivated solution was subjected to HPLC analysis and isolated hippuric acid was measured. Based on a hippuric acid peak area and solid amount (concentration and weighed amount) from the HPLC, an ACE inhibition rate (%) was obtained.
A substrate solution was prepared to obtain a boric acid buffering solution (pH 8.3) with 8 mM substrate (Hippuryl-His-Leu produced by PEPTIDE INSTITUTE, INC.) and 640 mM sodium chloride. An ACE solution was prepared to obtain a boric acid buffering solution with 30 mU/mL ACE (produced by Sigma-Aldrich Co. LLC).
<Liquid Chromatography Condition >
Column: Wakosil-II 5C18 HG (4.5mm I.D.×150mm produced by Wako Pure Chemical Industries, Ltd.)
• Column Temperature: 40° C. • Mobile Phase: 20 mM KH2PO4·H3PO4 (pH 3.0): Methanol (57:43, v/v) • Flow Rate: 1.0 mL/min. • Detection Wavelength: 228 nm • Feed Amount: 20 μL

Sequence of angiotensin-converting enzyme (ACE) (P12822 whole entry): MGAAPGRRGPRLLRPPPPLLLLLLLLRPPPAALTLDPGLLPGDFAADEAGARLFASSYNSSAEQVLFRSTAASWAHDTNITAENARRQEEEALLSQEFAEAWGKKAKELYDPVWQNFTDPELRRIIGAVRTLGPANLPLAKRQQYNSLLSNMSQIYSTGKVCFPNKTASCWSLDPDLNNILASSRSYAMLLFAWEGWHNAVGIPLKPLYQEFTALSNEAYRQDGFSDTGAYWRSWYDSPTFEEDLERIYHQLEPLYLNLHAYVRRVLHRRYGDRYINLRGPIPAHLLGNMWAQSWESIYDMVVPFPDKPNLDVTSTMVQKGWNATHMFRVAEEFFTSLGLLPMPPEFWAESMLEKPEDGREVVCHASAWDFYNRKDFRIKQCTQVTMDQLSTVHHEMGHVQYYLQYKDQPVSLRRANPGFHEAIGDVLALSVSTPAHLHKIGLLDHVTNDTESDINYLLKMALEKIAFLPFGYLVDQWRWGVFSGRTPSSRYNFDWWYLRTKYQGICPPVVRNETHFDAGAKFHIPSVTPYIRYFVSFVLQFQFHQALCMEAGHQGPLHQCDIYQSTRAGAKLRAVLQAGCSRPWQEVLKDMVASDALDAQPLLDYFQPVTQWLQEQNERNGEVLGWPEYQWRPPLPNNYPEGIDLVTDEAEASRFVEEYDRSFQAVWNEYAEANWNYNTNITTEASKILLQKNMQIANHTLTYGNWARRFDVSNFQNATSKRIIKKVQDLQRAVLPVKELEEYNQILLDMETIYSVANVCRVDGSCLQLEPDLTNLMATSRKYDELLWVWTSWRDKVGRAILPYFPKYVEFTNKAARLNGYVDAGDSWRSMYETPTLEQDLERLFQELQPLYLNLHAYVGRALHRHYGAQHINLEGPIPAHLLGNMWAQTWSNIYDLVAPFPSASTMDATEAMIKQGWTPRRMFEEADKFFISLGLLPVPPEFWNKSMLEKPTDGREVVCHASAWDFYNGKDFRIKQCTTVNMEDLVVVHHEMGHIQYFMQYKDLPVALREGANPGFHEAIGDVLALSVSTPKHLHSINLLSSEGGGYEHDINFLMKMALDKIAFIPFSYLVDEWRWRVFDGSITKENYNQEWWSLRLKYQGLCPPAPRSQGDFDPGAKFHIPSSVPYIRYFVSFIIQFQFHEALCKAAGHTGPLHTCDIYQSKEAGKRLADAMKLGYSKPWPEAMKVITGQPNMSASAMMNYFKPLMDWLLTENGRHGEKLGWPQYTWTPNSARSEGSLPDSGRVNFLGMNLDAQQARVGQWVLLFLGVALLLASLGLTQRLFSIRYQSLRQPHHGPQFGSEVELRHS

For `COc1cc(CCC(=O)O)ccc1O` [compound (I), 3-(4-hydroxy-3-methoxyphenyl)propionic acid], the IC50 (37° C., 45 minutes reaction, read-out: IC50 (concentration of the sample in the reaction solution exhibiting an ACE inhibition rate of 50%) (converted)) was 10.9 mM, the “ACE Inhibition Rate” value (sample concentration 943.25 μg/mL) was 21.6% and the “ACE Inhibition Rate” value (sample concentration 1886.50 μg/mL) was 41.1%. For the same molecule, the “ACE Inhibition Rate” value (sample concentration 3773.00 μg/mL) was 73.2%.
